Laboratory results: patent US8449930B2, “Drug or dermatological composition containing an avocado peptide extract for treating and preventing pruritus” (Laboratoires Expanscience, priority 2008, dated 2013)

How the values were obtained:
Type in all cases: cell-based
PAR-2 = PAR-2 gene expression in reconstructed epidermises (cDNA arrays); conditions: 1 μM retinoic acid, 6 hours
Protocol: Seventeen-day reconstructed epidermises (Skinethic) were treated systemically with 0.04% (w/v) avocado peptide extract (obtained in example 1) or 1 μM retinoic acid (Sigma, positive reference) for 6 hours.
Gene expression was analyzed using standard simplified DNA arrays. These microarrays involved spotting specific cDNA markers of interest on nylon membranes. Analysis was carried out according to a suitable miniaturized and optimized technology based on the use of messenger RNA and ^33P labeling.
When culturing was complete, the epidermises were rinsed with phosphate buffered saline (PBS) solution. The total RNA of the epidermises was then extracted and purified using TRI Reagent (Sigma) according to a standardized protocol. RNA quantity and quality were then evaluated using an Agilent 2100 bioanalyzer. The mRNA of each culture was reverse transcribed using oligo(dT) and a ^33P-labeled deoxyribonucleotide triphosphate. Multiple labeled cDNA “target” sequences were prepared for each culture. These targets were then hybridized, under optimized conditions, with cDNA “probes” in excess bound to membranes. After washing, the relative quantity of labeled target was measured by direct counting using a Phosphorlmager.
The membranes were analyzed using suitable software.

[1] = system: Normal human epidermal keratinocytes (NHEK); experiment: Synthesis/release of hyaluronic acid by keratinocytes (ELISA); conditions: 0.1 μM retinoic acid, 72 hours, culture supernatants
Protocol: (§1) Normal human epidermal keratinocytes (NHEK) were pre-cultured for 24 hours at 37° C. and 5% CO2 in low-calcium (0.09 mM) SFM (Invitrogen) medium supplemented with 0.25 ng/ml EGF (Invitrogen), 25 μg/ml pituitary extract (Invitrogen) and 25 μg/ml gentamycin (Sigma).
(§2) The keratinocytes were then treated for 72 hours with the avocado peptide extract (0.05% DM and 0.005% DM), according to example 1, or by the references: 0.1 μM retinoic acid (Sigma) or 1.5 mM calcium (Prolabo). Two identical series were prepared in order to assay both the release/production of hyaluronic acid and the incorporation of […] in the GAGs fraction. The batch corresponding to the assay of the GAGs was supplemented with ^35S-sulfate (Amersham) after 48 hours of culture (labeling during the last 24 hours).
In the batch corresponding to the assay of hyaluronic acid, at the end of the treatment, the culture supernatants were collected and hyaluronic acid was assayed using a specific modified ELISA test (Biogenic).
(§3) Intergroup comparisons were carried out by analysis of variance using Dunnett's multiple comparison test.

[2] = system: Normal human epidermal keratinocytes (NHEK); experiment: Synthesis of GAGs by keratinocytes (35S-sulfate incorporation); conditions: 72 hours
Protocol: as §1, §2
At the end of the treatment, in the batch corresponding to the assay of GAGs, the incorporated radioactivity was counted and thus the variation in the synthesis of GAGs in relation to the control was analyzed.
as §3

[3] = system: Rat peritoneal mast cells; experiment: Release of tryptase by mast cells induced by calcium ionophore A23187; conditions: 50 μM quercetin
Protocol: (§4) The studies presented below were carried out on rat peritoneal mast cells. These cells have the same features as cutaneous mast cells and thus constitute an experimental model representative of human skin.
Rat peritoneal mast cells (2×10^3 cells/ml) were incubated for 30 minutes at 37° C. in the presence or absence of 0.005% (w/v) avocado peptide extract (obtained in example 1) or 50 μM quercetin (Sigma), the reference tryptase release inhibitor. The cells were then stimulated for 15 minutes by 0.5 μM calcium ionophore A23187 (Millipore). The calcium ionophore is used to induce the release of tryptase (it induces an influx and mobilization of intracellular calcium). The reaction was quenched by centrifugation at 4° C.
Tryptase release was evaluated by assaying tryptase in the cell pellets and supernatants by means of the Mast Cell Degranulation Assay Kit (Millipore). This test is based on the spectrophotometric detection of the chromophore p-nitroaniline (pNA) after cleavage of the tosyl-gly-pro-lys-pNA substrate by tryptase.

[4] = system: Rat peritoneal mast cells; experiment: Release of histamine by mast cells induced by substance P
Protocol: as §4
Rat peritoneal mast cells (10,000 cells in suspension/250 μl Tyrode's buffer) were incubated for […] at 37° C. in the presence or absence of 0.05%, 0.5% and 1% (w/v) avocado peptide extract, obtained in example 1, or 10 mM calcium, used as the reference histamine release inhibitor.
The cells were then stimulated for 10 minutes by 10 μM substance P (Neosystem) in the presence of 0.3 mM calcium.
The reaction was quenched by centrifugation and the supernatants and cell pellets were taken up in 0.8 N perchloric acid in order to assay histamine using the spectrofluorometric method.
The quantities of histamine released were expressed as a percentage of release (quantity in supernatants/total quantity).

CC1=C(/C=C/C(C)=C/C=C/C(C)=C/C(=O)O)C(C)(C)CCC1 [retinoic acid]
PAR-2 (relative expression) Mean (PAR-2; systemic treatment): 3 | Percentage inhibition of PAR-2 gene expression (PAR-2; vs control epidermises): −29% | HA [1]: 11503 ng/mL | Incorporation of 35S-sulfate (cpm) ([2]; 0.1 μM retinoic acid): 13217 cpm | Percentage (change in synthesis of GAGs vs control cells) ([2]; 0.1 μM retinoic acid): +18%

O=c1c(O)c(-c2ccc(O)c(O)c2)oc2cc(O)cc(O)c12 [quercetin]
Tryptase (ng/ml) Mean ([3]; 30 min preincubation, stimulated 15 min by 0.5 μM calcium ionophore A23187): 44 ng/mL | inhibition at 50 µM ([3]; Rattus norvegicus, Mast cell, vs stimulated control (Ca ionophore), read-out: Percentage inhibition of tryptase release): 47%

[Ca+2] [calcium]
Histamine (% release) Mean ([4]; 10 mM calcium (reference inhibitor), stimulated 10 min by 10 μM substance P): 16 % release | Percentage inhibition of histamine release ([4]; calcium, 10 μM in table 8, 10 mM in text, vs stimulated control (substance P)): −78% | Incorporation of 35S-sulfate (cpm) ([2]; 1.5 mM calcium): 17753 cpm
